Measurements taken from patent US20250313535A1, “ALPHA 4 BETA 7 INTEGRIN MODULATORS AND USES THEREOF” (DICE MOLECULES SV, INC., priority 2022, published 2025).
Read-outs that look alike come from different tables or passages of the source.

Columns and labels:
[1] = molecular target: α4β7 integrin (Homo sapiens (Human), UniProt P13612+P26010); assay: Integrin Adhesion Assay: Protocol 4 (MAdCAM-coated plate, RPMI-8866 cells with stable LOF mutation of the ITGB1 gene); assay type: cell-based
Method in brief: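 RPMI-8866 cells with CRISPR/Cas9 knockout of ITGB1 (2×10^6/mL) were added to MAdCAM-coated wells with compound (1% DMSO) in HEPES/NaCl buffer with 1 mM MnCl2, 0.1 mM CaCl2 and 1% BSA, then incubated 1 h at 37 °C. After four washes, adherent cells were quantified by CellTiter-Glo luminescence. Percent inhibition versus DMSO and control compound was fitted to 4-parameter curves.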

[2] = molecular target: α4β1 integrin (Homo sapiens (Human), UniProt P05556+P13612); assay: Integrin Adhesion Assay: Protocol 5 (VCAM-coated plate, RPMI-8866 cells with stable LOF mutation of the ITGB7 gene); assay type: cell-based
Sequence of α4β1 integrin (P13612 34-1032): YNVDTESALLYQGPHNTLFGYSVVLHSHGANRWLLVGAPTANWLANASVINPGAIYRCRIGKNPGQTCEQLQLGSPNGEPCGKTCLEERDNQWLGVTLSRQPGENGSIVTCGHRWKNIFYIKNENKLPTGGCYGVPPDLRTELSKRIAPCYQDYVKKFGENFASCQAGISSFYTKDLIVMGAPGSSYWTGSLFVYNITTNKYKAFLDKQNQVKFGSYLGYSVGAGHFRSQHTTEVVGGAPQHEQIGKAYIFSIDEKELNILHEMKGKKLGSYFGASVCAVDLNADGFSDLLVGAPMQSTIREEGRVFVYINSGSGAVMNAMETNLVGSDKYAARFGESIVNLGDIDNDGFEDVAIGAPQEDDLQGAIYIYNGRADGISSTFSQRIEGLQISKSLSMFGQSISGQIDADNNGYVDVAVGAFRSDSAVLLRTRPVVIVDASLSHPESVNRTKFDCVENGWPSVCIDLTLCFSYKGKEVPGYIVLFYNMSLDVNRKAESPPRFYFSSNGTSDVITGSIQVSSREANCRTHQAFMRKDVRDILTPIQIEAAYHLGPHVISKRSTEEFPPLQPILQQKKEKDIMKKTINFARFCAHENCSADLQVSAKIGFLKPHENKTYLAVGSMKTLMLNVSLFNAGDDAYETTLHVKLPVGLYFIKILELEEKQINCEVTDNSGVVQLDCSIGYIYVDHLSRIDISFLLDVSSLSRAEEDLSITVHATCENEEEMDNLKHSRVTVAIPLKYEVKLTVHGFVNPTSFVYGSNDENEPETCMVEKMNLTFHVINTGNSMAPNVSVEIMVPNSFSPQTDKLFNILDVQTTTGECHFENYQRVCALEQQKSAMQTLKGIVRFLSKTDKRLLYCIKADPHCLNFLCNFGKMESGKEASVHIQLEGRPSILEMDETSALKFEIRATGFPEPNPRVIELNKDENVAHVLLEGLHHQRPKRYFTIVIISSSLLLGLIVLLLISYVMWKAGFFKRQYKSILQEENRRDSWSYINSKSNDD
Sequence of α4β1 integrin (P05556 21-798): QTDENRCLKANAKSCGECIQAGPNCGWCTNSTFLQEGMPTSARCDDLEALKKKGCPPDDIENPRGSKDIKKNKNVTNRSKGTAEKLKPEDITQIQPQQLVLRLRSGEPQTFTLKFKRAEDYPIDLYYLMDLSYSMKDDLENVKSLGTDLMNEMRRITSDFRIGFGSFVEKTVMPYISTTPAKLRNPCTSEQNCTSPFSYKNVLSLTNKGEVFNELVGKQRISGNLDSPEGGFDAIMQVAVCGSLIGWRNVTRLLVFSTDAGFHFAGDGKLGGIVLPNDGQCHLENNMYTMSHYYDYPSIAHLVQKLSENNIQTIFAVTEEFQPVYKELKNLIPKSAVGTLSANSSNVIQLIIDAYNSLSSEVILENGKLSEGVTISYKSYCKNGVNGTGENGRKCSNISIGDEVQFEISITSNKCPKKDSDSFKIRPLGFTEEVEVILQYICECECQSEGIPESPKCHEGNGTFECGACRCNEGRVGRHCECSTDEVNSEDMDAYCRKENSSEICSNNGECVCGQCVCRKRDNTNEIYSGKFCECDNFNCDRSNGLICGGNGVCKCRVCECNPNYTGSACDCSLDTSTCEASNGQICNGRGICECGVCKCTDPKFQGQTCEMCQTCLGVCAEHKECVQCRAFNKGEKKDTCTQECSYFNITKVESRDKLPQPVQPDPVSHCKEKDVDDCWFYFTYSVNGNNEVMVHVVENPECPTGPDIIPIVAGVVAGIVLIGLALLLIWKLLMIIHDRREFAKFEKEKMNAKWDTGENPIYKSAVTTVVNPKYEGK
Method in brief: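 RPMI-8866 B cells with CRISPR/Cas9 ITGB7 knockout (clonal, verified by flow cytometry) adhered to VCAM-coated wells for 1 h at 37° C in HEPES/NaCl buffer with 1 mM MnCl2, 0.1 mM CaCl2, 1% BSA, 1% DMSO. Bound cells quantified by CellTiter-Glo luminescence after washing; % inhibition versus DMSO and control, 4-parameter fit.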

[3] = RPMI-8866 cells with stable LOF mutation of the ITGB1 gene, read-out: Mean IC50 α4β7 KO^a
[4] = RPMI-8866 cells with stable LOF mutation of the ITGB7 gene, read-out: Mean IC50 α4β1 KO^b
[5] = Protocol 4, RPMI-8866 cells with LOF mutation of ITGB1, MAdCAM, read-out: Mean IC50 α4β7 KO
[6] = Protocol 5, RPMI-8866 cells with LOF mutation of ITGB7, VCAM, read-out: Mean IC50 α4β1 KO

Sequence of α4β7 integrin (P13612 34-1032): as the sequence (P13612 34-1032) above
Sequence of α4β7 integrin (P26010 20-798): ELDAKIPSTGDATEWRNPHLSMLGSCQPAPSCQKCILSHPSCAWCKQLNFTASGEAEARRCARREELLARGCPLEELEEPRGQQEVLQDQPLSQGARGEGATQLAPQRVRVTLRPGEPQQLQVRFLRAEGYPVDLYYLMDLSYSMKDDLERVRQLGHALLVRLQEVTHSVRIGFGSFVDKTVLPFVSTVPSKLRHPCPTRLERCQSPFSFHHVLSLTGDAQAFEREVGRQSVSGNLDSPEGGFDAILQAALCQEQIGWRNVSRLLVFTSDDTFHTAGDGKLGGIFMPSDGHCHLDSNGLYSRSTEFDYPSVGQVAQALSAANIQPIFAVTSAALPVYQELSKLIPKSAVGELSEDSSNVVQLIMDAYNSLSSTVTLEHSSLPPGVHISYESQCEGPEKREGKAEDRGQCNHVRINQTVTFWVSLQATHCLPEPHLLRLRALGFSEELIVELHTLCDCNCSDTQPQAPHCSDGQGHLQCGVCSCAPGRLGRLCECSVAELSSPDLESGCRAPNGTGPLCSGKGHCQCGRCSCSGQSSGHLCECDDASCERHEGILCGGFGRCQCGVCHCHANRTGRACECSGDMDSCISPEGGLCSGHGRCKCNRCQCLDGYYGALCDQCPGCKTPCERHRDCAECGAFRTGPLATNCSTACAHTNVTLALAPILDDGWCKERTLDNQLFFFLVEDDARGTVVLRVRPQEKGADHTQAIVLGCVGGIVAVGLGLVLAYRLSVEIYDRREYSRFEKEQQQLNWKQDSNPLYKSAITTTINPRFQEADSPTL

Compound	IC50 [1, 3] [nM]	IC50 [2, 4] [nM]	IC50 [1, 5] [nM]	IC50 [2, 6] [nM]
COc1cc2c(c(OC)c1-c1cccc3c(C[C@H](NC(=O)c4c(C)cccc4F)C(=O)O)cccc13)CN(CC(F)(F)F)CC2 [Compound 475]	< 10	100 to 1000	–	–
Cn1c(=O)c(-c2cccc3c(C[C@H](NC(=O)C4(C(F)(F)F)CCN(C(C(F)(F)F)C(F)(F)F)CC4)C(=O)O)cccc23)c(C(F)(F)F)c2ccccc21 [Compound 490]	> 1000	> 1000	–	–
COc1cccc(CN2CCCCC2)c1-c1cccc2c(C[C@H](NC(=O)c3c(C)cc(NCC(F)(F)F)cc3F)C(=O)O)cccc12 [Compound 545]	< 10	100 to 1000	–	–
Cn1c(=O)c(-c2cccc3c(C[C@H](NC(=O)c4c(F)cccc4F)C(=O)O)cccc23)c(C(F)(F)F)c2cc(CO)ccc21 [Compound 1043]	–	–	10 to 100	> 1000
COc1ccc(CN(C)C)c(OC)c1-c1cccc2c(C[C@H](NC(=O)c3c(C)cccc3Cl)C(=O)O)cccc12 [Compound 613]	< 10	100 to 1000	–	–
COc1cc2c(c(OC)c1-c1cccc3c(C[C@H](NC(=O)C4(C(F)(F)F)CCN(CC(F)(F)F)CC4)C(=O)O)cccc13)CN(C1CCCCC1)CC2 [Compound 993]	–	–	< 10	100 to 1000
Cc1c(CCN2CCCCC2)ccnc1-c1cccc2c(C[C@H](NC(=O)C3(C(F)(F)F)CCN(CC(F)(F)F)CC3)C(=O)O)cccc12 [Compound 717]	–	–	< 10	100 to 1000
COc1ccc(CN2CC3CCC(C2)O3)c(OC)c1-c1cccc2c(C[C@H](NC(=O)C3(C(F)(F)F)CCN(CC(F)(F)F)CC3)C(=O)O)cccc12 [Compound 845]	–	–	10 to 100	> 1000
COc1ccc2c(CN3CCCCC3)ccnc2c1-c1cccc2c(C[C@H](NC(=O)C3(C(F)(F)F)CCN(CC(F)(F)F)CC3)C(=O)O)cccc12 [Compound 722]	–	–	< 10	10 to 100
CN(C)Cc1cccc2c(-c3cccc4c(C[C@H](NC(=O)C5(C(F)(F)F)CCN([C@H]6CCOC6)CC5)C(=O)O)cccc34)nccc12 [Compound 593]	< 10	100 to 1000	–	–
COc1ccc(CN2CCN(C3CCC3)CC2)c(OC)c1-c1cccc2c(C[C@H](NC(=O)C3(C(F)(F)F)CCN(CC(F)(F)F)CC3)C(=O)O)cccc12 [Compound 816]	–	–	< 10	100 to 1000
COc1cc2c(c(C)c1-c1cccc3c(C[C@H](NC(=O)C4(C(F)(F)F)CCN(CC(F)(F)F)CC4)C(=O)O)cccc13)CN(C)CC2 [Compound 724]	–	–	< 10	10 to 100
Cn1c(=O)c(-c2cccc3c(C[C@H](NC(=O)C4(C(F)(F)F)CCN(C5(C(F)(F)F)COC5)CC4)C(=O)O)cccc23)c(C(F)(F)F)c2ccccc21 [Compound 491]	100 to 1000	> 1000	–	–
CC1(C(=O)N[C@@H](Cc2cccc3c(-c4nccc5ccc(CCCN6CCCCC6)cc45)cccc23)C(=O)O)CC2CCC(C1)N2CC(F)(F)F (some centres unmarked) [Compound 548]	< 10	> 1000	–	–
COc1ccc(CCN2CCC(C)(C)CC2)c(OC)c1-c1cccc2c(C[C@H](NC(=O)C3(C(F)(F)F)CCN(CC(F)(F)F)CC3)C(=O)O)cccc12 [Compound 967]	–	–	< 10	100 to 1000
Cc1cc(CN2CCCCC2)cnc1-c1cccc2c(C[C@H](NC(=O)C3(C(F)(F)F)CCN(CC(F)F)CC3)C(=O)O)cccc12 [Compound 721]	–	–	10 to 100	> 1000
COc1ccc(CN2CCN(C)C(C)(C)C2)c(OC)c1-c1cccc2c(C[C@H](NC(=O)C3(C(F)(F)F)CCN(CC(F)(F)F)CC3)C(=O)O)cccc12 [Compound 810]	–	–	< 10	100 to 1000
COc1cccc(CN2CCCCC2)c1-c1cccc2c(C[C@H](NC(=O)c3c(F)cccc3Cl)C(=O)O)cccc12 [Compound 674]	< 10	100 to 1000	–	–
COc1ccc(CN(C)C)c(OC)c1-c1cccc2c(C[C@H](NC(=O)c3c(C)cc(C(F)(F)F)cc3F)C(=O)O)cccc12 [Compound 603]	10 to 100	> 1000	–	–
